Reference: patent publication US7732475B2, “Histone deacetylase inhibitors” (Takeda San Diego, Inc., priority 2005, dated 2010)

Target: HDAC2 (Homo sapiens, UniProt Q92769)
Assay: HDAC2 fluorescence inhibition assay (tBoc-Lys(Ac)-AMC)

HDAC2, sequence (Q92769 with tags, fused parts or gaps): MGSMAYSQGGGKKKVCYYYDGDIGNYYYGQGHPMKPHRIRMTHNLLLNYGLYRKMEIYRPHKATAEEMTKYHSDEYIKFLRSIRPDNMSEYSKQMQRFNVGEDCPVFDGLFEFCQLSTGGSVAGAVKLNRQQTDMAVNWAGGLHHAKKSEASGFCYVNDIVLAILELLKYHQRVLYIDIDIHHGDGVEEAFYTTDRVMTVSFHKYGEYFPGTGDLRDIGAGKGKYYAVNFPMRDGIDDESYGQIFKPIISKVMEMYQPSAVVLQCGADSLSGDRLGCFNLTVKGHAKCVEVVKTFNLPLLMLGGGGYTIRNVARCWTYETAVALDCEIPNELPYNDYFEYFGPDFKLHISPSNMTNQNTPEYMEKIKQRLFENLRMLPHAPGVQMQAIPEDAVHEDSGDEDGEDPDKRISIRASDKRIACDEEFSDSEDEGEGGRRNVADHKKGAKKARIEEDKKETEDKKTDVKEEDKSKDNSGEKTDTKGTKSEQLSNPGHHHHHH

SMILES	IC50
Nc1ccccc1NC(=O)c1ccc(Cn2ncc3ccccc32)cc1 [Example 1, 4-((1H-indazol-1-yl)methyl)-N-(2-aminophenyl)benzamide]	≤ 50 nM
CC(=O)Nc1ccc2c(cnn2Cc2ccc(C(=O)Nc3ccccc3N)cc2)c1 [Example 3, 4-((5-acetamido-1H-indazol-1-yl)methyl)-N-(2-aminophenyl)benzamide]	≤ 50 nM
Nc1ccccc1NC(=O)c1ccc(Cn2ncc3cc([N+](=O)[O-])ccc32)cc1 [Example 5, N-(2-aminophenyl)-4-((5-nitro-1H-indazol-1-yl)methyl)benzamide]	≤ 50 nM
Nc1ccccc1NC(=O)c1ccc(Cn2ncc3cc(NC(=O)c4ccccc4)ccc32)cc1 [Example 6, 4-((5-benzamido-1H-indazol-1-yl)methyl)-N-(2-aminophenyl)benzamide]	≤ 50 nM
Nc1ccccc1NC(=O)c1ccc(Cn2cc3cc(NC(=O)c4ccccc4)ccc3n2)cc1 [Example 10, 4-((5-benzamido-2H-indazol-1-yl)methyl)-N-(2-aminophenyl)benzamide]	≤ 50 nM
COCCOC(=O)Nc1ccc2c(cnn2Cc2ccc(C(=O)Nc3ccccc3N)cc2)c1 [Example 13, 2-Methoxyethyl 1-(4-((2-aminophenyl)carbamoyl)benzyl)-1H-indazol-5-ylcarbamate]	≤ 50 nM
COC(=O)Nc1ccc2c(cnn2Cc2ccc(C(=O)Nc3ccccc3N)cc2)c1 [Example 14, Methyl 1-(4-((2-aminophenyl)carbamoyl)benzyl)-1H-indazol-5-ylcarbamate]	≤ 50 nM
Nc1ccccc1NC(=O)c1ccc(Cn2ncc3cc(NC(=O)OCc4ccccc4)ccc32)cc1 [Example 15, Benzyl 1-(4-((2-aminophenyl)carbamoyl)benzyl)-1H-indazol-5-ylcarbamate]	≤ 50 nM
Nc1ccccc1NC(=O)c1ccc(Cn2cc3cc(NC(=O)OCc4ccccc4)ccc3n2)cc1 [Example 16, Benzyl 2-(4-((2-aminophenyl)carbamoyl)benzyl)-2H-indazol-5-ylcarbamate]	≤ 50 nM
Nc1ccc(-c2ccccc2)cc1NC(=O)c1ccc(Cn2cc3cc([N+](=O)[O-])ccc3n2)cc1 [Example 17, N-(4-Amino-biphenyl-3-yl)-4-(5-nitro-indazol-2-ylmethyl)-benzamide]	≤ 50 nM
Nc1ccccc1NC(=O)c1ccc(Cn2cc3ccccc3n2)s1 [Example 19, 5-((2H-Indazol-2-yl)methyl)-N-(2-aminophenyl)thiophene-2-carboxamide]	100 to 500 nM
Nc1ccccc1NC(=O)c1ccc(Cn2cc3cc([N+](=O)[O-])ccc3n2)s1 [Example 20, N-(2-Aminophenyl)-5-((5-nitro-2H-indazol-2-yl)methyl)thiophene-2-carboxamide]	≤ 50 nM
Nc1ccccc1NC(=O)c1ccc(Cn2ncc3cc(NC(=O)N4CCOCC4)ccc32)cc1 [Example 21, N-(1-(4-((2-Aminophenyl)carbamoyl)benzyl)-1H-indazol-5-yl)morpholine-4-carboxamide]	≤ 50 nM
Nc1ccccc1NC(=O)c1ccc(Cn2ncc3cc(NC(=O)OCCN4CCOCC4)ccc32)cc1 [Example 22, 2-Morpholinoethyl 1-(4-((2-aminophenyl)carbamoyl)benzyl)-1H-indazol-5-ylcarbamate]	≤ 50 nM
Nc1ccccc1NC(=O)c1ccc(Cn2ncc3cc(NC(=O)OCc4cccnc4)ccc32)cc1 [Example 23, Pyridin-3-ylmethyl 1-(4-((2-aminophenyl)carbamoyl)benzyl)-1H-indazol-5-ylcarbamate]	≤ 50 nM
Nc1ccccc1NC(=O)c1ccc(Cn2ncc3ccccc32)s1 [Example 24, 5-((1H-Indazol-1-yl)methyl)-N-(2-aminophenyl)thiophene-2-carboxamide]	100 to 500 nM
Nc1ccc(-c2ccccc2)cc1NC(=O)c1ccc(Cn2cc3cccnc3n2)cc1 [Example 26, N-(4-Amino-biphenyl-3-yl)-4-pyrazolo[3,4-b]pyridin-2-ylmethyl-benzamide]	≤ 50 nM
Nc1ccc(-c2ccccc2)cc1NC(=O)c1ccc(Cn2cc3ccccc3n2)cc1 [Example 27, N-(4-Amino-biphenyl-3-yl)-4-indazol-2-ylmethyl-benzamide]	≤ 50 nM
Cc1nn(Cc2ccc(C(=O)Nc3ccccc3N)cc2)c2ccccc12 [Example 28, N-(2-Aminophenyl)-4-((3-methyl-1H-indazol-1-yl)methyl)benzamide]	50 to 100 nM
Cc1c2ccccc2nn1Cc1ccc(C(=O)Nc2ccccc2N)cc1 [Example 29, N-(2-Aminophenyl)-4-((3-methyl-2H-indazol-2-yl)methyl)benzamide]	50 to 100 nM
Nc1ccccc1NC(=O)c1ccc(CNc2n[nH]c3ccccc23)cc1 [Example 30, 4-((1H-indazol-3-ylamino)methyl)-N-(2-aminophenyl)benzamide]	50 to 100 nM
Nc1ccccc1NC(=O)c1ccc(Cn2cccn2)cc1 [Example 31, 4-((1H-pyrazol-1-yl)methyl)-N-(2-aminophenyl)benzamide]	≥ 500 nM
Cc1cnn(Cc2ccc(C(=O)Nc3ccccc3N)cc2)c1 [Example 34, N-(2-aminophenyl)-4-((4-methyl-1H-pyrazol-1-yl)methyl)benzamide]	100 to 500 nM

Next, values leading:

IC50	SMILES
50 to 100 nM	Nc1ccccc1NC(=O)c1ccc(Cn2cc3ccccc3n2)cc1 [Example 2, 4-((2H-indazol-2-yl)methyl)-N-(2-aminophenyl)benzamide]
≤ 50 nM	CC(=O)Nc1ccc2nn(Cc3ccc(C(=O)Nc4ccccc4N)cc3)cc2c1 [Example 4, 4-((5-acetamido-2H-indazol-2-yl)methyl)-N-(2-aminophenyl)benzamide]
≤ 50 nM	Nc1ccc2c(cnn2Cc2ccc(C(=O)Nc3ccccc3N)cc2)c1 [Example 7, 4-((5-amino-1H-indazol-1-yl)methyl)-N-(2-aminophenyl)benzamide]
≤ 50 nM	Nc1ccccc1NC(=O)c1ccc(Cn2cc3cc([N+](=O)[O-])ccc3n2)cc1 [Example 8, N-(2-aminophenyl)-4-((5-nitro-2H-indazol-2-yl)methyl)benzamide]
50 to 100 nM	Nc1ccc2nn(Cc3ccc(C(=O)Nc4ccccc4N)cc3)cc2c1 [Example 9, 4-((5-amino-2H-indazol-2-yl)methyl)-N-(2-aminophenyl)benzamide]
≤ 50 nM	COCCOC(=O)Nc1ccc2nn(Cc3ccc(C(=O)Nc4ccccc4N)cc3)cc2c1 [Example 11, 2-Methoxyethyl 2-(4-((2-aminophenyl)carbamoyl)benzyl)-2H-indazol-5-ylcarbamate]
≤ 50 nM	COC(=O)Nc1ccc2nn(Cc3ccc(C(=O)Nc4ccccc4N)cc3)cc2c1 [Example 12, Methyl 2-(4-((2-aminophenyl)carbamoyl)benzyl)-2H-indazol-5-ylcarbamate]
≤ 50 nM	Nc1ccccc1NC(=O)c1ccc(Cn2cc3cc(NC(=O)N4CCOCC4)ccc3n2)cc1 [Example 18, N-(2-(4-((2-Aminophenyl)carbamoyl)benzyl)-2H-indazol-5-yl)morpholine-4-carboxamide]
100 to 500 nM	Nc1ccccc1NC(=O)c1ccc(Cn2cc3cccnc3n2)cc1 [Example 25, 4-((2H-Pyrazolo[3,4-b]pyridin-2-yl)methyl)-N-(2-aminophenyl)benzamide]
≥ 500 nM	COC(=O)c1ccc(N)c(NC(=O)c2ccc(Cn3cc4ccccc4n3)cc2)c1 [Example 33, Methyl 3-(4-((2H-indazol-2-yl)methyl)benzamido)-4-aminobenzoate]
